Measurements as given in US9510598B2, “Nitrogen-containing heterocyclic compounds for plant disease control” (BAYER CROPSCIENCE AG, priority 2012, dated 2016).
“And” between values parts separate entries of the source, which are not always exact repeats. Identical values can stand only once. Like-named read-outs stand apart in the source and are kept apart here.

Experiments:
[1] = tested on: Phytophthora infestans; assay type: in vivo; details: 500 ppm; tomato plants sprayed 24 hours before contamination; grading 5 days after contamination vs control plants
[2] = tested on: Sphaerotheca fuliginea; assay: In vivo preventive test on Sphaerotheca fuliginea (powdery mildew on cucurbits); details: 500 ppm; gherkin plants sprayed 24 hours before contamination; grading 12 days after contamination vs control plants
How it was run: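 Preventive spray of gherkin plants at Z11 cotyledon stage, grown at 24° C; inoculation 24 hours later with Sphaerotheca fuliginea spores (100 000 spores per ml). Efficacy graded 12 days post-inoculation as % versus solvent-treated control plants.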

[3] = tested on: Septoria tritici; assay: In vivo preventive test on Septoria tritici (leaf spot on wheat); details: 500 ppm; wheat plants sprayed 24 hours before contamination; grading 21 to 28 days after contamination vs control plants
How it was run: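 Scipion wheat at 1-leaf stage sprayed with compound, controls receiving acetone/tween/DMSO/water vehicle; 24 h later leaves inoculated with Septoria tritici spores (500 000 spores per ml). Efficacy (%) graded versus control plants 21 to 28 days after contamination.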

[4] = tested on: Botrytis cinerea; assay: In vivo preventive test on Botrytis cinerea (grey mould); details: 500 ppm; gherkin plants sprayed 24 hours before contamination; grading 4-5 days after contamination vs control plants
How it was run: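 Gherkin plants ("Vert petit de Paris") sprayed with compound at Z11 cotyledon stage, then inoculated 24 h later with B. cinerea spores (50 000/ml) in PDB/fructose/NH4NO3/KH2PO4 nutrient solution. Incubated at 17 °C, 80% RH; % efficacy versus solvent-treated controls graded 4–5 days after contamination.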

[5] = assay type: physicochemical
[6] = Table 2, formula (II); method [a]: pH 2.7, 0.1% formic acid in water / acetonitrile gradient
Method: Measurement of log P values was performed according EEC directive 79/831 Annex V.A8 by HPLC (High Performance Liquid Chromatography) on reversed phase columns with the following methods: ^[a]

[7] = method [a]: HPLC/LC-MS on reversed phase at pH 2.7, 0.1% formic acid in water / acetonitrile, linear gradient 10% to 95% acetonitrile
[8] = method [a]: HPLC/LC-MS on reversed phase at pH 2.7, 0.1% formic acid in water / acetonitrile, gradient 10% to 95% acetonitrile
[9] = HPLC on reversed phase columns, method [a]: pH 2.7, 0.1% formic acid in water / acetonitrile, linear gradient 10% to 95% acetonitrile
[10] = HPLC on reversed phase columns, method [a]: pH 2.7, 0.1% formic acid in water and acetonitrile, linear gradient 10% to 95% acetonitrile

Structure (SMILES) | % of efficacy (protection) [1] | % of efficacy (protection) [2] | % of efficacy (protection) [3] | % of efficacy (protection) [4] | log P [5, 7] | log P [5, 8] | log P [5, 9] | log P [5, 10] | Log P [6]
C#Cc1cnc2ccc(C3=NOC(C)(C(=O)NCc4cnn(CC)c4C)C3)cc2c1 (centres unmarked) [compound 195] | 100% | 98% | 100% | 97% | 2.11^[a] |  |  |  | 
C#Cc1cnc2ccc(C3=NOC(C)(C(=O)NCc4cn(CCC)nc4C)C3)cc2c1 (centres unmarked) [compound 83] | 97% | 97% and 98% | 92% | 100% | 2.39^[a] |  |  |  | 
CCn1nc(C)c(CNC(=O)C2(C)CC(c3ccc4ncc(Br)cc4c3)=NO2)c1C (centres unmarked) [compound 88] | 100% |  |  |  | 2.32^[a] |  |  |  | 
C#Cc1cnc2ccc(C3=NOC(C)(C(=O)NCc4cnn(C(C)C)c4)C3)cc2c1 (centres unmarked) [compound 197] | 97% | 98% | 86% | 100% | 2.23^[a] |  |  |  | 
CCCn1cc(CNC(=O)C2(C)CC(c3ccc4ncc(I)cc4c3)=NO2)c(C)n1 (centres unmarked) [compound 455] | 100% | 98% |  | 98% |  | 2.75[a] |  |  | 
CC(C)n1cc(CNC(=O)C2(C)CC(c3ccc4ncc(Br)cc4c3)=NO2)cn1 (centres unmarked) [compound 199] | 92% | 98% |  | 99% | 2.5^[a] |  |  |  | 
C#Cc1cnc2ccc(C3=NOC(C)(C(=O)NC(C)C4=NOCC4)C3)cc2c1 (centres unmarked) [compound 338] | 92% | 100% | 100% |  |  |  | 2.08[a] |  | 
C#Cc1cnc2ccc(C3=NOC(C)(C(=O)NC(C)(C)C#CCOC)C3)cc2c1 (centres unmarked) [compound 465] | 100% | 81% | 97% | 88% |  | 2.82[a] |  |  | 
C=CC1(C(=O)NCCCOCC)CC(c2ccc3ncc(I)cc3c2)=NO1 (centres unmarked) [compound 730] | 100% | 98% | 100% | 85% |  |  |  | 3.19[a] | 
CCn1cc(C(C)NC(=O)C2(C)CC(c3ccc4ncc(Br)cc4c3)=NO2)c(C)n1 (centres unmarked) [compound 312] | 100% | 94% | 100% |  |  |  | 2.52[a] |  | 
CC1(C(=O)NCc2cnn(Cc3ccccc3)c2)CC(c2ccc3ncc(Br)cc3c2)=NO1 (centres unmarked) [compound 201] | 92% |  | 86% |  | 2.94^[a] |  |  |  | 
C=CC1(C(=O)NCc2cn(CC)nc2C)CC(c2ccc3ncc(I)cc3c2)=NO1 (centres unmarked) [compound 728] | 100% | 100% |  | 97% |  |  |  | 2.75[a] | 
C#Cc1cnc2ccc(C3=NOC(C)(C(=O)NCc4c(C)nn(C)c4C)C3)cc2c1 (centres unmarked) [compound 183] | 86% |  | 86% |  | 1.91^[a] |  |  |  | 
C#Cc1cnc2ccc(C3=NOC(C)(C(=O)NCc4c(C)nn(C(C)C)c4C)C3)cc2c1 (centres unmarked) [compound 196] | 94% |  |  |  | 2.32^[a] |  |  |  | 
C#Cc1cnc2ccc(C3=NOC(C)(C(=O)NC(C)(C)c4nc(C)cs4)C3)cc2c1 (centres unmarked) [compound 516] | 73% |  |  | 100% |  |  | 2.92[a] |  | 
CON=CC(C)(C)NC(=O)C1(C)CC(c2ccc3ncc(Br)cc3c2)=NO1 (centres unmarked) [compound 298] | 100% |  | 100% | 87% |  |  | 3.29[a] |  | 
C#Cc1cnc2c(Cl)cc(C3=NOC(C)(C(=O)NCc4cn(CCC)nc4C)C3)cc2c1 (centres unmarked) [compound 551] | 81% |  | 93% | 98% |  |  | 2.78[a] |  | 
C#Cc1cnc2ccc(C3=NOC(OC)(C(=O)NC(C)(C)c4cc(C)ccn4)C3)cc2c1 (centres unmarked) [compound 511] | 100% | 88% | 100% | 100% |  | 1.95[a] |  |  | 
C=CC1(C(=O)NCCCOCC)CC(c2ccc3ncc(Br)cc3c2)=NO1 (centres unmarked) [compound 733] | 100% | 98% | 92% |  |  |  |  | 3.06[a] | 
C#Cc1cnc2ccc(C3=NOC(C)(C(=O)NCc4cnn(CC)c4)C3)cc2c1 (centres unmarked) [compound 181] | 92% | 98% |  | 92% | 2.04^[a] |  |  |  | 

Structure (SMILES) | % of efficacy (protection) [1] | % of efficacy (protection) [2] | % of efficacy (protection) [3] | % of efficacy (protection) [4] | log P [5, 7] | log P [5, 8] | log P [5, 9] | log P [5, 10] | Log P [6]
C#Cc1cnc2ccc(C3=NOC(OC)(C(=O)NCc4c(C)cnn4CCC)C3)cc2c1 (centres unmarked) [compound 409] | 100% | 98% | 100% | 100% |  | 2.33[a] |  |  | 
CCCn1cc(CNC(=O)C2(OC)CC(c3ccc4ncc(I)cc4c3)=NO2)c(C)n1 (racemic) [compound 449] | 100% | 100% | 98% | 99% |  | 2.73[a] |  |  | 
CCn1cc(CNC(=O)C2(OC)CC(c3ccc4ncc(I)cc4c3)=NO2)c(C)n1 (racemic) [compound 437] | 70% | 100% |  |  |  | 2.44[a] |  |  | 
CCCn1cc(CNC(=O)C2(C)CC(c3cc(Cl)c4ncc(Br)cc4c3)=NO2)c(C)n1 (racemic) [compound 549] | 96% |  | 97% | 83% |  |  | 3.06[a] |  | 
C#Cc1cnc2ccc(C3=NOC(C)(C(=O)NCc4cn(C(C)C)nc4C)C3)cc2c1 (centres unmarked) [compound 461] | 100% | 98% |  | 99% |  | 2.34[a] |  |  | 
C#Cc1cnc2ccc(C3=NOC(C)(C(=O)NCc4c(C)nn(CC)c4C)C3)cc2c1 (centres unmarked) [compound 87] | 100% | 89% |  | 97% | 2.08^[a] |  |  |  | 
C#Cc1cnc2ccc(C3=NOC(C)(C(=O)NCc4ccnc(N5CCOCC5)c4)C3)cc2c1 (centres unmarked) [compound 194] | 94% |  |  |  | 1.36^[a] |  |  |  | 
C#Cc1cnc2ccc(C3=NOC(C)(C(=O)NC(C)c4cn(CC)nc4C)C3)cc2c1 (centres unmarked) [compound 351] | 100% | 98% | 100% |  |  |  | 2.28[a] |  | 
CC#Cc1cnc2ccc(C3=NOC(C)(C(=O)NC(C)C)C3)cc2c1 (racemic) [compound 381] | 95% | 94% | 97% |  |  | 2.73[a] |  |  | 
CCn1cc(CNC(=O)C2(C)CC(c3ccc4ncc(Br)cc4c3)=NO2)cn1 (centres unmarked) [compound 182] | 83% | 98% |  | 99% | 2.27^[a] |  |  |  | 
O=C(O)C1(C(F)(F)F)CC(c2ccc3ncc(Br)cc3c2)=NO1 (racemic) [II-08] |  |  |  |  |  |  |  |  | 1.85[a]
COc1c(C2=NOC(C)(C(=O)O)C2)cc2cccnc2c1F (racemic) [II-05] |  |  |  |  |  |  |  |  | 1.39[a]
CC1(C(=O)O)CC(c2ccc3nc(C#N)c(I)cc3c2)=NO1 (centres unmarked) [II-82] |  |  |  |  |  |  |  |  | 2.24[a]
CCOC(=O)C1(OCC)CC(c2ccc3ncc(Br)cc3c2)=NO1 (centres unmarked) [II-57] |  |  |  |  |  |  |  |  | 2.53[a]
CC1(C(=O)O)CC(c2ccc3nc(Cl)c(I)cc3c2)=NO1 (centres unmarked) [II-83] |  |  |  |  |  |  |  |  | 2.59[a]
COC(=O)C1(C)ON=C(c2ccc3ncc(Br)cc3c2)C1C (mixture of isomers) [II-15] |  |  |  |  |  |  |  |  | 2.94[a]
C#Cc1cnc2ccc(C3=NOC(C)(C(=O)NC(C)COC)C3)cc2c1 (racemic) [compound 365] | 79% | 98% | 100% |  |  | 2.26[a] |  |  | 
COC(=O)C12OCCCC1C(c1ccc3ncc(Br)cc3c1)=NO2 (centres unmarked) [II-32] |  |  |  |  |  |  |  |  | 2.80[a]
C=C(C)C1(C(=O)O)CC(c2ccc3ncc(Br)cc3c2)=NO1 (centres unmarked) [II-73] |  |  |  |  |  |  |  |  | 2.52[a]
CC(C)OC(=O)C1(C)CC(c2ccc3ncc(Br)cc3c2)=NO1 (centres unmarked) [II-59] |  |  |  |  |  |  |  |  | 3.53[a]
